Experimental data published in US6066333A, “Pharmaceutical control of inflammation” (William Harvey Research Limited, priority 1994, dated 2000).
Entries after “also recorded” stand apart in the source; their conditions may differ.

Tests used:
[1] = system: heme-oxygenase (brain homogenates); experiment: heme-oxygenase activity in rat brain homogenates; assay type: biochemical; conditions: for effect on brain HO activity: 0.1-10 mM (sodium nitroprusside 0.001-10 mM)
Description: (§1) The brains and spleens of male Wistar rats (160±20 g, Tuck Co. UK) were homogenized using a glass homogenizer, in protease inhibitory buffer; phenylmethylsulfonyl fluoride 1 mM, pepstatin A 1.5 mM and leupeptin 0.2 mM, in 10 mM phosphate buffered saline pH 7.3. Protein determinations were carried by the Bradford method, bovine serum albumin was used as protein standard.
(§2) Heme-oxygenase activity was assayed as previously described (Sierra, E. E. et al., (1992) Analytical Biochem. 200, 27-30).
(§3) Briefly, the 15 μl reaction mixture consisted of 11.2 μM [^14 C] heme (specific activity 54 Ci/mol), 1 mM NADPH, 2 mM glucose-6-phosphate, 0.1 units of glucose-6-phosphate dehydrogenase, 3 mg/ml liver cytosolic protein, 100-50 μg of sample protein and the relevant concentration of test drugs; L-arginine, D-arginine, NG-nitro-L-arginine methyl ester (L-NAME) or sodium nitroprusside. The reaction mixture containing the test drugs was allowed to equilibrate at 37° C. for 15 mins before the reaction was started by the addition of the heme. The reaction was terminated after 30 mins by the addition of excess cold heme and bilirubin and placed on ice. The reaction mixture was spotted on to the silica gel thin-layer chromatography sheet by 2, 2 μl applications. All samples were run in duplicate. The chromatogram was developed using a 20:1 dilution of chloroform:acetic acid. Spots corresponding to heme and bilirubin were excised and placed in 10 ml of scintillation fluid to be counted. The data was calculated as pmols bilirubin formed/mg protein/hour.
(§4) Statistical analysis of the raw data was carried using Student's unpaired t test. Results expressed as mean ± s.e.mean with P<0.05 considered as significant.

[2] = system: heme-oxygenase (spleen homogenates); experiment: heme-oxygenase activity in rat spleen homogenates; assay type: biochemical; conditions: 0.1-10 mM (sodium nitroprusside 0.001-10 mM)
Description: as §1, §2, §3, §4

carrageenin pleurisy [3] = experiment: rat carrageenin pleurisy model of acute inflammation (Example 1); assay type: in vivo; conditions: for Exudate Volume / Total Cells 10^6: mean ± s.e. mean; for effect on inflammation (exudate volumes and cell numbers) at 6 hours: compared to controls; for increase of exudate volume (cell exudate) compared to vehicle control: SnPP 2 x 40 μmoles/kg s.c.
Description: Male Wistar rates 200±20 grams (Tuck & Sons Ltd., Essex, UK) were used for inflammation. Animals were administered either with 15 mg/kg Ferriprotoporphrin IX chloride (FePP) by intravenous injection--18 hours before inflammation or with 2 doses of 40 μmoles/kg Tin protoporphyrin dichloride (SnPP) by sub-cutaneous injection--18 hours and at the time of inflammation induction (porphyrins were obtained from Porphyrin Products Inc., Logan, Utah). Drugs were prepared in 0.1N NaOH and mixed 1:1 with saline, these were then adjusted to pH 7.4, drug vehicle. The total volume injected was 0.2 ml. Control animals received vehicle only.
Carrageenin pleurisy was induced in rats and cell pellet prepared as previously described by Tomlinson et al.
Results are expressed as the mean ± s.e. mean. Statistical analysis was determined by Mann-Whitney U-test, with a P value of <0.05 considered significant.
The effect of heme-oxygenase inhibitor Tin protoporphyrin dichloride (SnPP) and inducer ferriprotoporphyrin IX chloride (FePP) on acute inflammation was examined. Treatment animals received either 2 doses of 40 μmoles/kg SnPP s.c.--18 and 0 hours before induction of inflammation, or 1 doses of 15 mg/kg FePP i.v--18 before inflammation. Treatment animals were compared to control animals which had received vehicle only by the appropriate route.***P<0.001.

carrageenin pleurisy [4] = experiment: rat carrageenin pleurisy, dose response of HO modulators (Example 2); assay type: in vivo; conditions: for effect on the inflammatory lesion compared to vehicle control at 6 hours: 6 hours after carrageenin, PMNs phase (data not shown); for effect on inflammation at 24 hours (dose dependence): 3, 10 or 30 μmoles/kg
Description: Animals received 2 doses of either 3, 10 or 30 μmoles/kg SnPP (a HO inhibitor) or vehicle control--18 hours and at the time of inflammation induction. Animals received 1 dose of either 3, 10 or 30 μmoles/kg FePP (a HO inducer) or vehicle control--18 hours before induction of inflammation, n=9.
Male Wistar rats 200+20 grams were anaesthetized with halothane and 150 ul of a 1% carrageenin solution in 0.9% NaCl injected into the pleural cavity. Exudates were collected 2, 6, 12, 24 and 48 hours after injection of the irritant by pleural lavage with 1 ml protease inhibitory buffer containing: trisodium citrate 3.15%, phenylmethylsulfonyl fluoride 1 mM (Sigma Chemical Co., Poole, UK), pepstatin A 1.5 mM (Sigma) and leupeptin 0.2 mM (Sigma) in 10 mM phosphate buffered (PBS) pH 7.3. Any exudates with blood contamination were rejected. Cells were counted using a Coulter counter, model DN (Coulter Electronics Ltd., Luton, UK). Each sample was centrifuged at 800 g for 10 minutes and the resultant cell pellet prepared as outlined below.
Results are expressed as the mean ± s.e.mean for (n) experiments. Statistical analysis was determined Student's unpaired t test, with a P value of <0.05 considered significant.
To investigate whether increased HO activity was not only associated with tissue protection but also involved in resolving acute inflammation we used an HO inhibitor, tin protoporphyrin (SnPP), administered sub-cutaneously 18 hours before and at the time of carrageenin injection, and an HO inducer, ferriprotoporphyrin IX chloride (FePP), given […] 18 hours before induction of the inflammation (Maines MD et al., FASEB J. 1988; 2:2557-2568).

heme-oxygenase = experiment: HO activity of 24 hour inflammatory cells after porphyrin treatment; assay type: in vivo, rat; conditions: FIGS. 15 and 16
Description: Cells are lysed by sonication for 10 seconds in protease inhibitory buffer. Heme-oxygenase is assayed as previously described. […] The reaction is started by the addition of the heme, incubated at 37° C. for 30 minutes and stopped by the addition of excess cold heme and bilirubin followed by placing on ice. 2 μl of reaction mixture is spotted twice onto a silica gel thin-layer chromatography sheet. The chromatogram is developed using a 20:1 dilution of chloroform:acetic acid. Spots corresponding to hem and bilirubin are were cut out and placed in 10 ml of scintillation fluid to be counted. […] The activity is expressed as pmoles bilirubin/mg protein/hour, n=9. Results are expressed as the mean ± s.e.mean.

[5] = 6 hours after carrageenin, SnPP 2 x 40 μmoles/kg s.c. (-18 and 0 h) or FePP 15 mg/kg i.v. (-18 h)
[6] = 6 hours after carrageenin, SnPP 2 x 40 μmoles/kg s.c. or FePP 15 mg/kg i.v.
[7] = 24 hours after carrageenin, SnPP 2 x 40 μmoles/kg s.c. or FePP 15 mg/kg i.v.
[8] = 24 hours, FePP 15 mg/kg i.v., P<0.001
[9] = 24 hours, FePP 3 μmole/kg, 1 dose s.c. 18 hours before

Structure (SMILES) | effect on brain HO activity [1] | effect on spleen HO activity [2] | Exudate Volume (carrageenin pleurisy [3]; [5]) | Total Cells 10^6 (carrageenin pleurisy [3]; [6]) | effect on inflammation (exudate volumes and cell numbers) at 6 hours (carrageenin pleurisy [3]) | Exudate Volume (carrageenin pleurisy [3]; [7]) | Total Cells 10^6 (carrageenin pleurisy [3]; [7]) | effect on the inflammatory lesion compared to vehicle control at 6 hours (carrageenin pleurisy [4]) | effect on inflammation at 24 hours (dose dependence) (carrageenin pleurisy [4]; 24 hours) | HO activity of inflammatory pellets after treatment (heme-oxygenase) | also measured
N=C(N)NCCC[C@@H](N)C(=O)O [D-arginine] | no significant effect | not modified; also recorded: no effect | – | – | – | – | – | – | – | – | –
C=CC1=C(C)c2cc3[n-]c(cc4[n-]c(cc5nc(cc1n2)C(C)=C5C=C)c(C)c4CCC(=O)O)c(CCC(=O)O)c3C.[Cl-].[Fe+3] [FePP, Ferriprotoporphrin IX chloride] | – | – | 0.99 ± 0.11 mL | 50 ± 8 10^6 | not significantly modified | 0.37 ± 0.07 mL | 45 ± 6 10^6 | Neither SnPP or FePP treatments had an effect | dose dependant suppression of inflammatory cell number and exudate volume | increase | effect on inflammation (exudate volumes and cell numbers) at 6 hours (carrageenin pleurisy [3]; listed as hemin): no significant effect; decrease of cell number (total cells) compared to vehicle control (carrageenin pleurisy [3]; [8]): 50%; decrease of exudate volume (cell exudate) compared to vehicle control (carrageenin pleurisy [3]; [8]): 73%; decrease of exudate volume (cell exudate) compared to vehicle control (carrageenin pleurisy [3]; 24 hours, FePP 15 mg/kg i.v., P<0.001, listed as hemin): 83%; degree of suppression compared with conventional anti-inflammatories or steroids in this model (carrageenin pleurisy [4]; 24 hours): greater than that seen with optimal doses of conventional anti-inflammatories or steroids; reduction of exudate volume compared to vehicle control (carrageenin pleurisy [4]; [9]): 55%; reduction of inflammatory cell number compared to vehicle control (carrageenin pleurisy [4]; [9]): 90%
C=CC1=C(C)C2=Cc3c(C=C)c(C)c4[n]3[Sn]([Cl])([Cl])[n]3c(c(C)c(CCC(=O)O)c3=CC3=NC(=C4)C(C)=C3CCC(=O)O)=CC1=N2 [SnPP, Tin protoporphyrin dichloride] | – | – | 1.59 ± 0.12 mL | 67 ± 6 10^6 | not significantly modified | 1.80 ± 0.21 mL | 58 ± 6 10^6 | Neither SnPP or FePP treatments had an effect | dose dependant increase in inflammatory exudate | reduction of HO activity | effect on inflammation (exudate volumes and cell numbers) at 6 hours (carrageenin pleurisy [3]; listed as tin Protoporphyrin-IX): no significant effect; increase of exudate volume (cell exudate) compared to vehicle control (carrageenin pleurisy [3]; 24 hours, P<0.001): 128%; increase of exudate volume (cell exudate) compared to vehicle control (carrageenin pleurisy [3]; 24 hours, P<0.001, listed as tin Protoporphyrin-IX): 135%; increase of exudate volume compared to vehicle control (carrageenin pleurisy [4]; 24 hours, 3 μmoles/kg SnPP, 2 doses s.c.): 70%; effect on exudate volume at highest dose (carrageenin pleurisy [4]; 24 hours, SnPP 30 μmoles/kg): increased exudate volume further; effect on inflammatory cell number at highest dose (carrageenin pleurisy [4]; 24 hours, SnPP 30 μmoles/kg, likely a toxic effect): decrease in inflammatory cell number
COC(=O)[C@@H](N)CCCNC(=N)N[N+](=O)[O-] [L-NAME, NG-nitro-L-arginine methyl ester] | dose dependent increase; also recorded: increased activity | not modified; also recorded: no effect | – | – | – | – | – | – | – | – | increase in brain HO activity ([1]; 5 mM L-NAME, vs control without compound): 80%
N=C(N)NCCC[C@H](N)C(=O)O [L-arginine] | dose dependent decrease; also recorded: decreased heme-oxygenase activity | not modified; also recorded: no effect | – | – | – | – | – | – | – | – | decrease in brain HO activity ([1]; 10 mM, vs control without compound, 30 min): 75%
